In patent US20200138854A1, “Method of Detecting and Quantifying Bile Acid from Saliva” (Ironwood Pharmaceuticals, Inc., priority 2017, published 2020):
Values joined by “and” are separate entries in the source; they are usually repeats but may differ in a detail not shown here. Equal entries are not always repeated. Where two headings read alike, the source gives them in different places.

Experiments:
[1] = Long-term (1 month at −20° C. and −80° C.) stability in untreated human saliva; settings: for Fresh QCs (Batch 34) Mean at Time Zero, QC-High / % Bias QC-High / % CV QC-High / Difference from Fresh (%) QC-High / Mean concentration QC-High / Concentration QC-High / Concentration after long-term storage / Mean concentration after long-term storage / % Bias / Difference from Fresh (%) / Fresh QCs (Batch 34) Mean at Time Zero: nominal 80.0 ng/mL; for Concentration after long-term storage / Mean concentration after long-term storage: 1 Month; for Concentration after long-term storage / Mean concentration after long-term storage / % Bias / Difference from Fresh (%) / Fresh QCs (Batch 34) Mean at Time Zero: QC-High; for Concentration after long-term storage: individual values
Method: For long-term stability in untreated human saliva, samples were prepared by spiking untreated human saliva with each analyte at the QC-Low and QC-High levels. The samples were stored in a −20° C. freezer and in a −80° C. freezer. After 1 month of storage, each sample was extracted in replicates of three for analysis.
A 100-μL aliquot of sample (calibration standards, quality controls, blanks, and stability samples) was transferred into a 96 well plate, according to a pre-defined layout. […] The plates were covered, vortex-mixed and then centrifuged for 5 minutes at 3200 rpm. Supernatants (350 μL each) were transferred into the corresponding wells of a clean 96 well plate and evaporated to dryness under nitrogen in a Turbovap set to 40° C. The dried residue in each well was reconstituted with 75 μL of 50:50 (v:v) methanol:water.

[2] = Frozen (−20° C.) short-term stability in cholestyramine-treated human saliva; settings: for Concentration QC-LLOQ / Concentration QC-Mid / Concentration QC-High: Run 33, cholestyramine-treated human saliva, replicate; for Mean concentration QC-LLOQ / Mean concentration QC-Mid / Mean concentration QC-High / Mean concentration after frozen (−20° C.) storage: n 4; for Concentration: individual values
Method: Quality control samples for the evaluation of accuracy and precision and for run acceptance were prepared on the day of sample extraction. QC samples prepared in cholestyramine-treated saliva are to be prepared in small volumes for analysis. Stability for these QC samples would be limited to short-term storage (i.e., 2 days) whereas untreated human saliva would be evaluated for long-term storage.
For stability in cholestyramine-treated human saliva, samples were prepared by spiking cholestyramine-treated human saliva with each analyte at the QC-LLOQ, QC-Low, QC-Mid and QC-High levels. The samples were stored in a −20° C. freezer. After 1 day and 2 days of storage, each sample was extracted in replicates of four for analysis.

[3] = nominal 0.500 ng/mL, 1 Day at −20° C.
[4] = nominal 0.500 ng/mL, 2 Days at −20° C.
[5] = nominal 8.00 ng/mL, 1 Day at −20° C.
[6] = nominal 8.00 ng/mL, 2 Days at −20° C.
[7] = nominal 80.0 ng/mL, 1 Day at −20° C.
[8] = nominal 80.0 ng/mL, 2 Days at −20° C.
[9] = 1 month −20° C. storage, untreated human saliva
[10] = 1 month −80° C. storage, untreated human saliva
[11] = −20° C., 1 Day, QC-High, nominal 80.0 ng/mL
[12] = −20° C., 1 Day, QC-LLOQ, nominal 0.500 ng/mL
[13] = −20° C., 1 Day, QC-Mid, nominal 8.00 ng/mL
[14] = −20° C., 2 Days, QC-High, nominal 80.0 ng/mL
[15] = −20° C., 2 Days, QC-LLOQ, nominal 0.500 ng/mL
[16] = −20° C., 2 Days, QC-Mid, nominal 8.00 ng/mL

C[C@H](CCC(=O)NCCS(=O)(=O)O)[C@H]1CC[C@H]2[C@@H]3[C@H](O)C[C@@H]4C[C@H](O)CC[C@]4(C)[C@H]3CC[C@]12C [Taurochenodeoxycholic Acid, Taurochenodeoxycholic acid]
Fresh QCs (Batch 34) Mean at Time Zero, QC-High ([1]; reference for −20° C. Storage, untreated human saliva): 84.5 ng/mL | Fresh QCs (Batch 34) Mean at Time Zero, QC-High ([1]; reference for −80° C. Storage, untreated human saliva): 84.5 ng/mL | % Bias QC-High ([1]; −20° C. Storage, 1 month): 1.0% | % CV QC-High ([1]; −20° C. Storage, 1 month): 2.5% | Difference from Fresh (%) QC-High ([1]; −20° C. Storage, 1 month): −4.3% | Mean concentration QC-High ([1]; −20° C. Storage, 1 month, n 3): 80.8 ng/mL | Concentration QC-High ([1]; −20° C. Storage, 1 month, untreated human saliva, Run 35, replicate): 79.1 ng/mL and 83.0 ng/mL and 80.4 ng/mL | % Bias QC-High ([1]; −80° C. Storage, 1 month): 1.0% | % CV QC-High ([1]; −80° C. Storage, 1 month): 4.7% | Difference from Fresh (%) QC-High ([1]; −80° C. Storage, 1 month): −4.3% | Mean concentration QC-High ([1]; −80° C. Storage, 1 month, n 3): 80.8 ng/mL | Concentration QC-High ([1]; −80° C. Storage, 1 month, untreated human saliva, Run 35, replicate): 84.4 ng/mL and 81.2 ng/mL and 76.9 ng/mL | Short-term stability in cholestyramine-treated human saliva [2]: up to 2 days | Stability in Treated Human Saliva [2]: 2 days | % Bias QC-LLOQ [2, 3]: 7.1% | % CV QC-LLOQ [2, 3]: 2.2% | Concentration QC-LLOQ [2, 3]: 0.529 ng/mL and 0.542 ng/mL and 0.522 ng/mL and 0.548 ng/mL | Mean concentration QC-LLOQ [2, 3]: 0.535 ng/mL | % Bias QC-LLOQ [2, 4]: 19.6% | % CV QC-LLOQ [2, 4]: 4.1% | Concentration QC-LLOQ [2, 4]: 0.608 ng/mL and 0.589 ng/mL and 0.569 ng/mL and 0.626 ng/mL | Mean concentration QC-LLOQ [2, 4]: 0.598 ng/mL | % Bias QC-Mid [2, 5]: −5.4% | % CV QC-Mid [2, 5]: 0.9% | Concentration QC-Mid [2, 5]: 7.59 ng/mL and 7.63 ng/mL and 7.58 ng/mL and 7.47 ng/mL | Mean concentration QC-Mid [2, 5]: 7.57 ng/mL | % Bias QC-Mid [2, 6]: −1.8% | % CV QC-Mid [2, 6]: 4.0% | Concentration QC-Mid [2, 6]: 7.42 ng/mL and 8.04 ng/mL and 8.12 ng/mL and 7.83 ng/mL | Mean concentration QC-Mid [2, 6]: 7.85 ng/mL | % Bias QC-High [2, 7]: −3.3% | % CV QC-High [2, 7]: 2.9% | Concentration QC-High [2, 7]: 78.3 ng/mL and 79.8 ng/mL and 74.6 ng/mL and 76.6 ng/mL | Mean concentration QC-High [2, 7]: 77.3 ng/mL | % Bias QC-High [2, 8]: −3.8% | % CV QC-High [2, 8]: 3.9% | Concentration QC-High [2, 8]: 74.4 ng/mL and 78.6 ng/mL and 74.5 ng/mL and 80.3 ng/mL | Mean concentration QC-High [2, 8]: 77.0 ng/mL

C[C@H](CCC(=O)O)[C@H]1CC[C@H]2[C@@H]3[C@H](O)C[C@@H]4C[C@H](O)CC[C@]4(C)[C@H]3C[C@H](O)[C@]12C [Cholic Acid, Cholic acid]
Concentration after long-term storage ([1]; −20° C. Storage, run 35): 72.6 ng/mL and 76.7 ng/mL and 76.0 ng/mL | Mean concentration after long-term storage ([1]; −20° C. Storage, n 3): 75.1 ng/mL | Concentration after long-term storage ([1]; −80° C. Storage, run 35): 79.6 ng/mL and 77.9 ng/mL and 77.2 ng/mL | Mean concentration after long-term storage ([1]; −80° C. Storage, n 3): 78.2 ng/mL | % Bias ([1]; 1 month, −20° C. Storage): −6.1% | Difference from Fresh (%) ([1]; 1 month, −20° C. Storage): −6.1% | % Bias ([1]; 1 month, −80° C. Storage): −2.2% | Difference from Fresh (%) ([1]; 1 month, −80° C. Storage): −2.2% | Fresh QCs (Batch 34) Mean at Time Zero ([1]; reference for −20° C. Storage): 80.0 ng/mL | Fresh QCs (Batch 34) Mean at Time Zero ([1]; reference for −80° C. Storage): 80.0 ng/mL | % Bias ([2]; Storage period 1 Day at −20° C., QC-High, nominal 80.0 ng/mL): −6.7% | % Bias ([2]; Storage period 1 Day at −20° C., QC-LLOQ, nominal 0.500 ng/mL): −0.9% | % Bias ([2]; Storage period 1 Day at −20° C., QC-Mid, nominal 8.00 ng/mL): −5.9% | Mean concentration after frozen (−20° C.) storage ([2]; Storage period 1 Day, QC-High, nominal 80.0 ng/mL): 74.7 ng/mL | Mean concentration after frozen (−20° C.) storage ([2]; Storage period 1 Day, QC-LLOQ, nominal 0.500 ng/mL): 0.496 ng/mL | Mean concentration after frozen (−20° C.) storage ([2]; Storage period 1 Day, QC-Mid, nominal 8.00 ng/mL): 7.53 ng/mL | % Bias ([2]; Storage period 2 Days at −20° C., QC-High, nominal 80.0 ng/mL): −6.2% | % Bias ([2]; Storage period 2 Days at −20° C., QC-LLOQ, nominal 0.500 ng/mL): 12.1% | % Bias ([2]; Storage period 2 Days at −20° C., QC-Mid, nominal 8.00 ng/mL): −3.6% | Mean concentration after frozen (−20° C.) storage ([2]; Storage period 2 Days, QC-High, nominal 80.0 ng/mL): 75.1 ng/mL | Mean concentration after frozen (−20° C.) storage ([2]; Storage period 2 Days, QC-LLOQ, nominal 0.500 ng/mL): 0.561 ng/mL | Mean concentration after frozen (−20° C.) storage ([2]; Storage period 2 Days, QC-Mid, nominal 8.00 ng/mL): 7.72 ng/mL

C[C@H](CCC(=O)NCCS(=O)(=O)O)[C@H]1CC[C@H]2[C@@H]3CC[C@@H]4C[C@H](O)CC[C@]4(C)[C@H]3C[C@H](O)[C@]12C [Taurodeoxycholic Acid, Taurodeoxycholic acid]
% Bias QC-High [1, 9]: −4.7% | % CV QC-High [1, 9]: 3.5% | Difference from Fresh (%) QC-High [1, 9]: −5.5% | Mean concentration QC-High [1, 9]: 76.2 ng/mL | Concentration QC-High ([1]; 1 month −20° C. storage, untreated human saliva, run 35): 73.7 ng/mL and 79.0 ng/mL and 76.0 ng/mL | % Bias QC-High [1, 10]: −2.7% | % CV QC-High [1, 10]: 4.4% | Difference from Fresh (%) QC-High [1, 10]: −3.6% | Mean concentration QC-High [1, 10]: 77.8 ng/mL | Concentration QC-High ([1]; 1 month −80° C. storage, untreated human saliva, run 35): 80.2 ng/mL and 79.4 ng/mL and 73.9 ng/mL | Long-term stability in untreated human saliva ([1]; at 80° C. (sic)): up to 1 month | Stability in Untreated Human Saliva ([1]; at −20° C.): 1 Month | Stability in Untreated Human Saliva ([1]; at −80° C.): 1 Month | Fresh QCs (Batch 34) Mean at Time Zero, QC-High ([1]; reference for −20° C. storage, untreated human saliva): 80.7 ng/mL | Fresh QCs (Batch 34) Mean at Time Zero, QC-High ([1]; reference for −80° C. storage, untreated human saliva): 80.7 ng/mL | Short-term stability in cholestyramine-treated human saliva ([2]; human): up to 2 days | Stability in Treated Human Saliva ([2]; human): 2 days | % Bias [2, 11]: −1.3% | Concentration, Mean [2, 11]: 79.0 ng/mL | Concentration [2, 11]: 78.6 ng/mL and 82.0 ng/mL and 76.9 ng/mL and 78.5 ng/mL | % Bias [2, 12]: 10.3% | Concentration, Mean [2, 12]: 0.551 ng/mL | Concentration [2, 12]: 0.539 ng/mL and 0.570 ng/mL and 0.536 ng/mL and 0.560 ng/mL | % Bias [2, 13]: −2.5% | Concentration, Mean [2, 13]: 7.80 ng/mL | Concentration [2, 13]: 7.71 ng/mL and 7.90 ng/mL and 7.81 ng/mL and 7.77 ng/mL | % Bias [2, 14]: −4.4% | Concentration, Mean [2, 14]: 76.5 ng/mL | Concentration [2, 14]: 73.7 ng/mL and 76.5 ng/mL and 76.2 ng/mL and 79.5 ng/mL | % Bias [2, 15]: 17.2% | Concentration, Mean [2, 15]: 0.586 ng/mL | Concentration [2, 15]: 0.596 ng/mL and 0.592 ng/mL and 0.555 ng/mL and 0.601 ng/mL | % Bias [2, 16]: −2.9% | Concentration, Mean [2, 16]: 7.77 ng/mL | Concentration [2, 16]: 7.19 ng/mL and 8.02 ng/mL and 8.13 ng/mL and 7.72 ng/mL
